Entries after “also recorded” stand apart in the source; their conditions may differ.
How the values were obtained:
mTOR pathway = assay: Inhibition of mTOR pathway in EGF stimulated ADPKD cells by Western blot; type: cell-based, human
Procedure: (§1) Human ADPKD cells were plated at a density of 1×10^5 cells per well in medium containing 1% FBS in a 6-well plate. Cells were serum-starved for 24 hours and treated with 25 ng/ml EGF to stimulate cell proliferation, then treated with increasing concentrations of KU-174. As a control for inhibition of the mTOR pathway, ADPKD cells were stimulated by EGF and treated with Rapamycin or LY294002. After 24 or 48 hours, cytoplasmic protein extracts were prepared by lysing cells in ice-cold lysis buffer (10 mM Tris-Cl pH 7.5, 150 mM NaCl, 2 mM EDTA pH 8.0, 1% Triton X-100, 0.5% NP-40, 25 mM glycerol 2-phosphate, 1 mM sodium orthovanadate, 1 mM phenylmethylsulfonyl fluoride, and 0.1% v/v Sigma protease inhibitor cocktail). Nuclei and other Triton-insoluble components were removed by high speed centrifugation. Protein concentration was measured using the Pierce BCA assay kit. 20 μg total protein was boiled with SDS sample buffer and fractionated on 7.5, 10 or 12.5% SDS-PAGE gels. Proteins were transferred to PVDF membranes and non-specific binding blocked with 5% powdered milk in TBS-T (10 mM Tris-Cl pH 7.5, 150 mM NaCl, and 0.1% Tween 20) for 1 h at room temperature. Blocked membranes were incubated with primary antibodies in 5% powdered milk or 5% BSA (for phospho-proteins) in TBS-T overnight at 4° C. Membranes were then washed three times with TBS-T and incubated with alkaline phosphatase-conjugated secondary antibodies in 5% milk in TBS-T for 30 min at room temperature. The membranes were washed three times with TBS-T, and protein bands were visualized using the CDP-star detection reagent (GE healthcare). Intensity was detected and quantitatively analyzed by the Fluor-S MAX multi-imager system (Bio-Rad).
Human ADPKD cells were plated at a density of 1×10^5 cells per well in medium containing 1% FBS in a 6-well plate. Cells were serum-starved for 24 hours and treated with 25 ng/ml EGF to stimulate cell proliferation, then treated with increasing concentrations of KU-174. As a control for inhibition of the mTOR pathway, ADPKD cells were stimulated by EGF and treated with Rapamycin or LY294002, (an inhibitor of phosphoinositide-3-kinases, PI3Ks). After 24 or 48 hours, cells were lysed and 20 μg total cell lysate analyzed by Western blotting. Blots were probed with antibodies against p-Akt (S473), Akt, p-TSC2 (S939), TSC2, p-mTOR (S2448), mTOR, p-S6K (T412 and T389; phospho-p70 S6 Kinase phosphorylated at T389 or T412) and S6K (p70 S6 kinase; p70S6K1). […] In the 1 μM KU-174 treated cell lysates, p-Akt was decreased by 64%, p-mTOR by 56%, and p-S6K isoforms p85 and p70 by 75% compared with control EGF treated cells and normalized with respect to the corresponding total protein (n=3). There was no change in p-TSC2 levels. […] The figures represent results from independent experiments using primary human ADPKD cells from three different kidneys.

human ADPKD cells = assay: Microcyst assay in collagen gel matrix; type: cell-based
Procedure: Microcyst assay was performed as described previously by Yamaguchi, T., et al., Calcium restores a normal proliferation phenotype in human polycystic kidney disease epithelial cells. J Am Soc Nephrol, 2006. 17(1): p. 178-87. Primary cultures of human ADPKD cells (4×10^3 cells/well) were dispersed within an ice-cold type I collagen matrix (Vitrogen; Collagen Corp., Palo Alto, Calif.) in wells of a 96-well culture plate. Warming the plate to 37° C. caused polymerization of the collagen, trapping the cells within the gel. A defined medium (DMEM/F12 with ITS, 5×10^−8M hydrocortisone, and 5×10^−5 M triiodothyronine) supplemented with 5 μM forskolin and 5 ng/ml EGF was added for 3 days to initiate cyst growth. Forskolin (FSK) is a small molecule agonist of adenylyl cyclase, the enzyme that makes cAMP. Thus, FSK treatment of cells increases the levels of intracellular cAMP. Fresh media containing EGF and forskolin plus 1 μM or 5 μM KU-174 were added for an additional 5-7 days. […] Gels containing cysts were fixed in 1% formaldehyde and cyst diameters were measured using a morphometric analysis system. Outer diameters of cross-sectional images of spherical cysts with distinct lumens were measured using an inverted microscope with a digital camera and video analysis software. The total surface area (SA) of the cysts within each well was calculated from the individual cyst diameters (cysts≧100 μm). KU-174 inhibits microcyst formation by ADPKD cells in a collagen gel matrix.

[1] = test system: Human ADPKD cyst-lining epithelial cells; assay: Cell proliferation assay (Promega Cell Titer 96 MTT); type: cell-based; conditions: 0.1, 0.5, 1 uM KU-174 for 72 h
Procedure: Primary cultures of human ADPKD cyst-lining epithelial cells were established as described in Yamaguchi, T., et al., Calcium restores a normal proliferation phenotype in human polycystic kidney disease epithelial cells. J Am Soc Nephrol, 2006. 17(1): p. 178-87. Cystic tissue from ADPKD kidneys were minced and digested overnight in DMEM/F12 (1:1) mixture that contained 220 IU/ml type IV collagenase and 100 IU/ml penicillin G and 0.1 mg/ml streptomycin (P/S) (13). Collagenase digestion was stopped by the addition of FBS. […]
The novobiocin analog KU-174 was studied to determine the effect on cAMP and EGF-stimulated proliferation of ADPKD cyst-lining epithelial cells. Cell proliferation was determined by the Promega Cell Titer 96 MTT assay method as described in Yamaguchi, T., et al., Calcium restores a normal proliferation phenotype in human polycystic kidney disease epithelial cells. […] After 72 hours of treatment, cell proliferation was measured by adding the MTT assay reagent and stopping the reaction four hours later. Absorbance was read on a spectrophotometer at 570 nm. Optical densities were measured using a spectrophotometer. In each group, results were expressed as a percentage of the control group (not treated with KU-174).

ERK 1/2 = assay: Inhibition of p-ERK in EGF stimulated ADPKD cells by Western blot; type: cell-based, human; conditions: for decrease in P-Erk (phosphorylation of ERK 1/2): EGF-stimulated ADPKD cells
Procedure: as §1

[2] = test system: Hsp90 client proteins CFTR, C-Raf, cdk4, ErbB2 and Akt; assay: Hsp90 client protein levels in EGF stimulated human ADPKD cells by Western blot; type: cell-based
Procedure: as §1
Proteins from 20 μg total cell lysate were analyzed by Western blotting. Blots were probed with antibodies against Hsp90 and client proteins CFTR, C-Raf, cdk4, ErbB2 and Akt. GAPDH served as the internal control.

[3] = test system: Pkd1+/− mouse metanephric kidneys; assay: Metanephric organ culture; conditions: embryonic day 15.5 kidneys, 100 μM cAMP, 10 μM KU-174, four days
Source text: Pkd1^m1Bei mice were obtained from the Mutant Mouse Regional Resource Center (University of North Carolina, Chapel Hill, N.C.) and were stabilized onto a C57BL/6 background (>10 backcrosses). This mouse has a point mutation (T to G at 9248 bp) that causes an M to R substitution that affects the first transmembrane domain of polycystin-1 as described by Herron, B. J., et al., Efficient generation and mapping of recessive developmental mutations using ENU mutagenesis. Nat Genet, 2002. 30(2): p. 185-9.
Mouse metanephric kidneys were cultured according to methods described in Magenheimer, B. S., et al., Early embryonic renal tubules of wild-type and polycystic kidney disease kidneys respond to cAMP stimulation with cystic fibrosis transmembrane conductance regulator/Na(+),K(+),2Cl(−) Co-transporter-dependent cystic dilation. J Am Soc Nephrol, 2006. 17(12): p. 3424-37. Metanephroi were dissected from Pkd1+/− embryonic mice and placed on transparent Falcon […] cell culture inserts. […] Upon culturing (day 0) and approximately 24 h later (day 1) and each day after (days 2 to 4), kidneys were photographed using a 2× or 4× objective, and the images were acquired and analyzed using the analySIS imaging program (Soft Imaging System, Munster, Germany). […]

murine pkd1-null cells = conditions: cited from earlier work
Pkd1−/− embryonic mice = Pkd1−/− embryonic mice with ADPKD; cited from earlier work
[4] = 48 h, 1 μM KU-174, compared to control EGF treated cells

SMILES: COc1cccc(-c2cc(C(=O)Nc3cc4ccc(O[C@@H]5OC(C)(C)[C@H](OC)[C@@H](O)[C@H]5O)c(OC)c4oc3=O)ccc2OC)c1 [KU-174, N-(7-((2S,3R,4S,5R)-3,4-dihydroxy-5-methoxy-6,6-dimethyltetrahydro-2H-pyran-2-yloxy)-8-methoxy-2-oxo-2H-chromen-3-yl)-3′,6-dimethoxybiphenyl-3-carboxamide]
- p-S6K (mTOR pathway; 24 h, 1 μM KU-174): slight decrease
- change in phosphoproteins (P-mTOR, P-Akt, P-TSC2, P-S6K) (mTOR pathway; 24 h of treatment, 50 nM to 1 μM KU-174, EGF-stimulated ADPKD cells): no change
- decrease in P-Akt (S473) (mTOR pathway; [4]): 64%
- decrease in P-S6K (isoforms p85 and p70) (mTOR pathway; [4]): 75%
- decrease in P-mTOR (S2448) (mTOR pathway; [4]): 56%
- decreasing the phosphoproteins (mTOR pathway; 48 h, both 0.5 and 1 μM KU-174): effective
- P-TSC2 (S939) levels (mTOR pathway; EGF-stimulated ADPKD cells, KU-174 up to 1 μM, 48 h): no change
- total Akt levels (mTOR pathway; at the concentrations examined (up to 1 μM KU-174)): did not appear to decrease
- inhibition in cyst growth (total cyst surface area per well) (human ADPKD cells; 1 μM KU-174, EGF and forskolin, p<0.01): significant inhibition
- inhibition of cyst-formation induced by EGF and forskolin (human ADPKD cells; 1 μM KU-174, n=6): more than 3 fold
- cyst formation (human ADPKD cells; 5 μM KU-174, EGF and forskolin, p<0.01): completely eliminated
- microcyst formation by ADPKD cells in a collagen gel matrix (human ADPKD cells; EGF and forskolin, 1 μM or 5 μM KU-174): dose-dependent inhibition; also recorded: reduces; also recorded: inhibits
- proliferation of EGF-stimulated ADPKD cyst-lining epithelial cells (MTT assay) ([1]; 25 ng/ml EGF): dose-dependent decrease; also recorded: significantly inhibited
- proliferation of cAMP-stimulated ADPKD cyst-lining epithelial cells (MTT assay) ([1]; 100 μM cAMP): dose-dependent decrease; also recorded: significantly inhibited
- decrease in P-Erk (phosphorylation of ERK 1/2) (ERK 1/2; 0.5 μM KU-174, 48 h): 70%
- total Erk levels (ERK 1/2; 0.5 μM and 1 μM KU-174, EGF-stimulated ADPKD cells): remained virtually unchanged
- decrease in P-Erk (phosphorylation of ERK 1/2) (ERK 1/2; 1 μM KU-174, 48 h): 80%
- inhibition of p-ERK (ERK 1/2; increasing concentrations of KU-174, EGF-stimulated ADPKD cells): dose-dependent inhibition
- total levels of C-Raf ([2]; 24 h, 1 μM KU-174): decreased
- total levels of CFTR ([2]; 24 h, 1 μM KU-174): decreased
- all the client proteins examined (CFTR, C-Raf, cdk4, ErbB2) ([2]; 48 h, both 0.5 and 1 μM KU-174): effective in decreasing
- levels of the Hsp90 client proteins CFTR, ErbB2, c-Raf and Cdk4 ([2]; dose and time-dependent manner, ADPKD cells): decreases
- cyst burden / cyst formation in cAMP-treated metanephric kidneys [3]: reduces the cyst burden; also recorded: reduction in cyst burden; also recorded: reduced cyst formation

SMILES: CC(C)[C@]12O[C@H]1[C@@H]1O[C@]13[C@]1(O[C@H]1C[C@H]1C4=C(CC[C@@]13C)C(=O)OC4)[C@@H]2O [Triptolide]
- cell growth (murine pkd1-null cells): cause cell growth arrest
- cyst formation (Pkd1−/− embryonic mice): inhibit cyst formation
